Measured values: patent publication EP3009138B1, “MANGIFERA EXTRACT FOR THE MANAGEMENT OF OBESITY AND/OR WEIGHT” (Kodimule, Shyam Prasad, priority 2014, dated 2016)
Marks after values point to notes of the source that are not given here.

Experiments:
[1] = Superoxide Dismutase (SOD) activity / superoxide anion scavenging (NBT/NADH/PMS); type: biochemical; conditions: 100 µg/ml (method)
Method: The superoxide anion scavenging activity of the HC was measured in this test. 1 ml (156 µM) of Nitro blue tetrazolium (NBT), 1 ml (468 µM) of nicotinamide adenine dinucleotide (NADH) and 3 ml of the HC at 100 µg/ml concentration were admixed in phosphate buffer (pH 7.4). The reaction was started by adding 100 µl of phenazine methosulfate (PMS) (0.18mg/ml) and the mixture was incubated at 25°C for 5 min followed by measuring the absorbance at 560 nm. Similar solutions were prepared for quercetin and mangiferin and the percentage of inhibition was calculated by using the formula provided herein-below; the result was expressed as % superoxide dismutase scavenging activity. % superoxide dismutase inhibition = {(Abs control−Abs sample) × 100; Abs control} [formula] where: • Abs control - Absorbance of control • Abs sample - Absorbance of sample extract/ standard (the HC, mangiferin and quercetin)

[2] = Lipid peroxidation inhibitory assay (TBARS); type: biochemical; conditions: Sample Concentration: 100-500µ g/ml
Method: A modified Thiobarbituric acid reactive species (TBARS) assay (Ohkowa et al., 1979) is used to measure lipid peroxidation formed using egg yolk homogenate as lipid rich media (Ruberto et al., 2000).
Take 0.5ml of egg homogenate (10%in distilled water) and 0.1 ml of test sample in the concentration range 100-500µ g/ml in a test tube and volume made up to 1 ml by adding distilled water. Finally add 0.05 ml ferrous sulphate (0.07M) to the above mixture and incubate for 30 min to induce the lipid peroxidation. Thereafter add 1.5 ml of 20% acetic acid (pH 3.5) and 1.5 ml of (0.8%in 1.1% SDS) TBA and 0.05 ml (20%) TCA then heated in boiling water bath for 60 min. After cooling 5 ml of butanol will be added to all the test tubes and centrifuged at 3000 rpm for 10 min. Measure the absorbance of the organic upper layer at 532 nm. The percentage inhibition of lipid peroxidation calculated from the formula, % Inhibition = ((Abcontrol−Abtest sample)*100)/(Abcontrol) [formula] where: • Ab (cont) - is the absorbance of the control • Ab (test sample) - is the absorbance of the test sample /standard Table 12 Lipid peroxidation inhibitory assay test results

[3] = Hydrogen peroxide (H2O2) scavenging activity; type: biochemical
Method: Hydrogen peroxide scavenging activity of the HC was estimated in this study where initially, HC solutions were prepared at different concentrations in distilled water and the resultant solutions were mixed in 0.6 ml of 40 mM H2O2 solution prepared in phosphate buffer (0.1 M pH 7.4) and incubated for 10 min. The absorbance was measured at 230 nm against a blank solution containing H2O2. Similar procedure was repeated for HC, Mangiferin and Quercetin. The amount of hydrogen peroxide radical inhibited was calculated using the following equation. The result is expressed as % H2O2 radical scavenging activity. H2 O2 radical scavenging activity = {(Abs control−Abs sample) × 100; (Abs control)} [formula] where: • Abs control - Absorbance of H2O2 radical • Abs sample - Absorbance of sample extract/ standard (the HC, mangiferin and quercetin)

[4] = target: T1, Porcine Pancreatic Lipase (Sus scrofa, UniProt P00591); assay: Anti-lipase assay (triolein emulsion); type: biochemical; conditions: Sample Concentration: 1.2 mg/ml; 37 °C, 30 min
T1 sequence (P00591 1-450): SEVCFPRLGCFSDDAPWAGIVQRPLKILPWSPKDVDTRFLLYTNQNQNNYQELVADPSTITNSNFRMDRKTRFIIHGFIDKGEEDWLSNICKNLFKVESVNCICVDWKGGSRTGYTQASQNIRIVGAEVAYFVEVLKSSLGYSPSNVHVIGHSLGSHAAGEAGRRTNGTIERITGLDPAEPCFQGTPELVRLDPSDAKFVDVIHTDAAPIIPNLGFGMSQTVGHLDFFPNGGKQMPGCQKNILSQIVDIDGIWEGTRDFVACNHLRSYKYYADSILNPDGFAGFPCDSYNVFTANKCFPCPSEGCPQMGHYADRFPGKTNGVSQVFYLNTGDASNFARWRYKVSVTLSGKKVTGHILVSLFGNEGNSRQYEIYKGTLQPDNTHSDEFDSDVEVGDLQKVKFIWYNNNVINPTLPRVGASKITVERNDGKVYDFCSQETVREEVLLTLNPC
Method: A suspension containing 1% (V/V) of triolein and 1% (V/V) of tween 40 in 0.1M phosphate buffer (pH-8) was prepared and emulsified. The assay was initiated by adding 800µl of the Triolein emulsion to 200µl of Porcine Pancreatic Lipase (0.5 g Pancreatic Lipase in 15 ml of 0.1 M phosphate buffer at pH-8) and 200 µl of the HC extract (100 µg/ml concentration). The resultant mixture was mixed and the absorbance was measured immediately at 450 nm (T^0). The mixtures were then incubated at 37 °C for 30 min and the absorption was measured at 450 nm (T^30). Inhibition % = {A(cont)−A(test) × 100; A(cont)} [formula] where: • A(cont) - is the absorbance of the control (TC^0-TC^30) • A(test) - is the absorbance of the sample test /standard (T^0-T^30) (the HC, mangiferin and quercetin)

high fat diet fed rats = assay: Anti-obesity activity in high fat diet fed rats; type: in vivo, Male Wistar rats; conditions: male rats, Orlistat 30 mg/kg (Group III)
Method: Objective: The objective was to investigate the effect of the HC against high fat diet fed rats. Animals: Male Wistar rats (160 to 200 g); No of animals: 36; Housing: 3/ cage, 12 hrs light/dark cycle; Temperature: 25±2°c; Model & Composition of the Diet: High fat diet in rats: 25% Lard, 5% Soyabean oil; 5% starch; 65% Normal commercial available rat feed; Groups: Male Wistar rats were divided into six groups with six animals in each group [table]

In the case of `O=c1c(O)c(-c2ccc(O)c(O)c2)oc2cc(O)cc(O)c12` [Quercetin (Standard), Quercetin], the “SOD activity % Inhibition” value [1] is reported as 51.03%, the “Lipid peroxidation inhibitory assay % inhibition” value [2] is reported as 53.44% and the H2O2 scavenging activity ([3]; 10 µg/ml) is reported as 5.6%. The H2O2 scavenging activity ([3]; 20 µg/ml) was 14.55%, the H2O2 scavenging activity ([3]; 30 µg/ml) was 18.86% and the H2O2 scavenging activity ([3]; 40 µg/ml) was 33.96%.

Work on `O=c1c2cc(O)c(O)cc2oc2cc(O)c([C@@H]3O[C@H](CO)[C@@H](O)[C@H](O)[C@H]3O)c(O)c12` [Mangiferin 98%, Mangiferin] yielded an inhibition at 1200 µg/mL [4] of 41.8%.

In the case of `CCCCCCCCCCC[C@@H](C[C@@H]1OC(=O)[C@H]1CCCCCC)OC(=O)[C@H](CC(C)C)NC=O` [Orlistat], the Initial weight (high fat diet fed rats; baseline, in g (unit assumed)) is reported as 182.00±0.96, the “Atherogenic Index” value (high fat diet fed rats) is reported as 1.39±0.15***^b and the Average food intake (high fat diet fed rats) is reported as 13.45±0.28^nsb g/rat. The BAT (high fat diet fed rats) was 0.28± 0.01^nsb, the “Difference in body weight gain” value (high fat diet fed rats) was 79.82±2.58***^b and the “Epididymal fat pad Left” value (high fat diet fed rats) was 0.52± 0.03^nsb. The “Epididymal fat pad Right” value (high fat diet fed rats) was 0.55± 0.02^nsb, the “Fecal fatty acid estimation” value (high fat diet fed rats) was 4.1±0.26*^b and the Insulin (high fat diet fed rats) was 0.15±0.005^nsb mU/L. The “Liver (organ weight)” value (high fat diet fed rats) was 2.8±0.08 ***^b, the Liver triglycerides (high fat diet fed rats) was 87.77±2.28*^b and the Mesenteric fat (high fat diet fed rats) was 1.02±0.07 ^nsb. For the same compound, the “Perirenal fat pad tissue Left” value (high fat diet fed rats) was 0.77± 0.08*^b, the “Perirenal fat pad tissue Right” value (high fat diet fed rats) was 0.77±0.08*^b and the “serum Glucose” value (high fat diet fed rats) was 92.00±2.89**^b mg/dL. The Final weight (high fat diet fed rats; in g (unit assumed)) was 261.80±2.53, the HDL-c (high fat diet fed rats; serum) was 21.72±1.22**^b mg/dL and the LDL-c (high fat diet fed rats; serum) was 13.20±1.71**^b mg/dL. For the same compound, the Total cholesterol (high fat diet fed rats; serum) was 50.91±0.62***^b mg/dL, the Triglyceride (high fat diet fed rats; serum) was 79.96±1.13***^b mg/dL and the inhibition at 1200 µg/mL [4] was 75.3%.
